For experiment [1], the target named is Sigma non-opioid intracellular receptor 1 (Homo sapiens, UniProt Q99720). Put plainly: Binding affinity to sigma-1 receptor (unknown origin).
Experiment [2] in a line: Selectivity ratio of Ki for rat liver membrane sigma-2 receptor to Ki for guinea pig brain cortex sigma-1 receptor.
A short description of experiment [3]: Displacement of [3H]-di-o-tolylguanidine from sigma-2 receptor in rat liver membranes after 120 mins by scintillation counting analysis. The experiment is classed as cell membranes, Membrane. (In general: Displacement assays read how much labelled ligand stays bound in the presence of the test substance.)
Experiment [4] addresses Sigma non-opioid intracellular receptor 1 (Cavia porcellus, UniProt Q60492). As to the kind of experiment: Displacement of [3H]-(+)-pentazocine from sigma-1 receptor in guinea pig brain cortex after 120 mins by scintillation counting analysis. The experiment is classed as tissue-based, Cerebral cortex.

The Ki is a measure of affinity in units of concentration, obtained from inhibition or displacement. High values mean a looser hold on the target, low ones a stronger hold on the target.

Sigma non-opioid intracellular receptor 1 (Cavia porcellus, UniProt Q60492), sequence (Q60492 whole entry): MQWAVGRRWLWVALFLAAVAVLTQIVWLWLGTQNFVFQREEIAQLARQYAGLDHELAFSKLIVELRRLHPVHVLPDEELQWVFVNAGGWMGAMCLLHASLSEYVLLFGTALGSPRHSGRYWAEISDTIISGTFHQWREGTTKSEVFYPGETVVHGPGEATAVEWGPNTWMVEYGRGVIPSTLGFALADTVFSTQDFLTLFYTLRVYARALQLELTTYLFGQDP
Sigma non-opioid intracellular receptor 1 (Homo sapiens, UniProt Q99720), sequence (Q99720 whole entry): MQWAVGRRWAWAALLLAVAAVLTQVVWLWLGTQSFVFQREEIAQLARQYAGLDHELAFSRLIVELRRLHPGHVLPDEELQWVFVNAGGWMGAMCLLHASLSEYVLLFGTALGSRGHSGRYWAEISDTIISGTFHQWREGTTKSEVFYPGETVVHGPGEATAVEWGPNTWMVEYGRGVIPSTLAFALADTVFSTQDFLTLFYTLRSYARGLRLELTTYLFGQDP

Consider `c1ccc(N2CCN(CCC3OCCc4c3cnn4-c3ccccc3)CC2)cc1` (stereo not given), for which affinity in experiment [1] was put at a Ki of 2.9 nM.

On to `c1ccc(CN2CCC3(CCCc4sccc43)CC2)cc1`, for which the Ratio Ki in experiment [2] was 16. The results for the inhibitory constant (Ki) in experiment [3] and in experiment [4] were 172 nM and 10.5 nM, respectively.

In turn, `CN(C)CCC1OCCc2c1cnn2-c1ccccc1` (stereo not given) returned a Ki in experiment [1] of 24 nM.

As for `c1ccc(CCN2CCC3(CCCc4sccc43)CC2)cc1`, in experiment [2], the Ratio Ki was 0.4. Also, the inhibition constant Ki in experiment [3] was determined as 105 nM; in experiment [4], 277 nM.

For `c1ccc(CCCN2CCC3(CCCc4sccc43)CC2)cc1`, the Ratio Ki in experiment [2] stood at 4. Also, the Ki in experiment [3] turned out to be 186 nM; in experiment [4], 46 nM.

Regarding `c1cc2c(s1)CCCC21CCN(CC2CCCCC2)CC1`, the Ratio Ki in experiment [2] came to 5. The Ki in experiment [3] came to 23 nM; in experiment [4] it was 4.3 nM.

Turning to `c1ccc(CN2CCC3(CCCc4sccc43)C2)cc1` (stereo not given), in experiment [2], the Ratio Ki came out at 4. Also, the inhibitory constant (Ki) in experiment [3] came to 130 nM; in experiment [4], 29 nM.

For the compound `CCCCN1CCC2(CCCc3sccc32)CC1`, the Ratio Ki in experiment [2] is 8. Further, the inhibition constant Ki in experiment [3] is 48 nM; in experiment [4], 6.3 nM.

The values above are taken from ChEMBL document CHEMBL3217589, “Spiro[[1]benzothiophen-4,4-piperidines] carba analogs of potent 1 ligands” (Medchemcomm, 2013).
